Assay results: ChEMBL document CHEMBL1201862, “PubChem BioAssay data set” (2004)
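All cell lines were grown in 96-well plates and treated with compound for 48 hours. GI50 = concentration required for 50% inhibition of growth.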 The source made the active and inactive calls. Rule as the data show it: active = GI50 up to about 1.1 µM and inactive = higher.

Columns and labels:
Assay in all cases: NCI-60 cell line screen, 48 h
786-0 = test system: 786-0
A498 = test system: A498
A549 = test system: A549
ACHN = test system: ACHN
CAKI-1 = test system: CAKI-1
CCRF-CEM = test system: CCRF-CEM
COLO 205 = test system: COLO 205
DU-145 = test system: DU-145
EKVX = test system: EKVX
HCC 2998 = test system: HCC 2998
HCT-116 = test system: HCT-116
HCT-15 = test system: HCT-15
HL-60 = test system: HL-60
HOP-62 = test system: HOP-62
HOP-92 = test system: HOP-92
HT-29 = test system: HT-29
Hs-578T = test system: Hs-578T
IGROV-1 = test system: IGROV-1
K562 = test system: K562
KM12 = test system: KM12
M14 = test system: M14
MCF7 = test system: MCF7
MDA-MB-231 = test system: MDA-MB-231
MDA-MB-435 = test system: MDA-MB-435
MDA-N = test system: MDA-N
MOLT-4 = test system: MOLT-4
Malme-3M = test system: Malme-3M
NCI-H226 = test system: NCI-H226
NCI-H23 = test system: NCI-H23
NCI-H460 = test system: NCI-H460
NCI-H522 = test system: NCI-H522
NCI/ADR-RES = test system: NCI/ADR-RES
OVCAR-4 = test system: OVCAR-4
OVCAR-5 = test system: OVCAR-5
OVCAR-8 = test system: OVCAR-8
PC-3 = test system: PC-3
RPMI-8226 = test system: RPMI-8226
RXF 393 = test system: RXF 393
SF-268 = test system: SF-268
SF-295 = test system: SF-295
SF-539 = test system: SF-539
SK-MEL-28 = test system: SK-MEL-28
SK-MEL-2 = test system: SK-MEL-2
SK-MEL-5 = test system: SK-MEL-5
SK-OV-3 = test system: SK-OV-3
SN12C = test system: SN12C
SNB-19 = test system: SNB-19
SNB-75 = test system: SNB-75
SR = test system: SR
SW-620 = test system: SW-620
T47D = test system: T47D
TK-10 = test system: TK-10
U-251 = test system: U-251
UACC-257 = test system: UACC-257
UACC-62 = test system: UACC-62
UO-31 = test system: UO-31

Question: What does the source list for `COc1ccc(NC(=O)NNS(=O)(=O)c2ccc(C)cc2)cc1`?
Answer: GI50 (786-0): 0.792 µM (active); GI50 (A498): > 100 µM (inactive); GI50 (A549): > 100 µM (inactive); GI50 (ACHN): 91.6 µM (inactive); GI50 (CAKI-1): > 100 µM (inactive); GI50 (CCRF-CEM): > 100 µM (inactive); GI50 (COLO 205): > 100 µM (inactive); GI50 (DU-145): > 100 µM (inactive); GI50 (EKVX): > 100 µM (inactive); GI50 (HCC 2998): > 100 µM (inactive); GI50 (HCT-116): > 100 µM (inactive); GI50 (HCT-15): > 100 µM; GI50 (HL-60): > 100 µM (inactive); GI50 (HOP-62): > 100 µM (inactive); GI50 (HOP-92): > 100 µM (inactive); GI50 (HT-29): > 100 µM (inactive); GI50 (Hs-578T): > 100 µM (inactive); GI50 (IGROV-1): > 100 µM (inactive); GI50 (K562): > 100 µM (inactive); GI50 (KM12): 91.6 µM (inactive); GI50 (M14): > 100 µM (inactive); GI50 (MCF7): > 100 µM (inactive); GI50 (MDA-MB-231): > 100 µM (inactive); GI50 (MDA-MB-435): 30.4 µM (inactive); GI50 (MDA-N): 32.7 µM (inactive); GI50 (MOLT-4): > 100 µM (inactive); GI50 (Malme-3M): > 100 µM (inactive); GI50 (NCI-H226): > 100 µM (inactive); GI50 (NCI-H23): 52.8 µM (inactive); GI50 (NCI-H460): > 100 µM (inactive); GI50 (NCI-H522): 45.1 µM (inactive); GI50 (NCI/ADR-RES): > 100 µM (inactive); GI50 (OVCAR-4): 25.1 µM (inactive); GI50 (OVCAR-5): > 100 µM (inactive); GI50 (OVCAR-8): > 100 µM (inactive); GI50 (PC-3): 71 µM (inactive); GI50 (RPMI-8226): > 100 µM (inactive); GI50 (RXF 393): > 100 µM (inactive); GI50 (SF-268): > 100 µM (inactive); GI50 (SF-295): > 100 µM (inactive); GI50 (SF-539): > 100 µM (inactive); GI50 (SK-MEL-28): > 100 µM (inactive); GI50 (SK-MEL-2): > 100 µM (inactive); GI50 (SK-MEL-5): 74 µM (inactive); GI50 (SK-OV-3): > 100 µM (inactive); GI50 (SN12C): > 100 µM (inactive); GI50 (SNB-19): > 100 µM (inactive); GI50 (SNB-75): 29.4 µM (inactive); GI50 (SR): 63 µM (inactive); GI50 (SW-620): > 100 µM (inactive); GI50 (T47D): > 100 µM (inactive); GI50 (TK-10): > 100 µM (inactive); GI50 (U-251): > 100 µM (inactive); GI50 (UACC-257): > 100 µM (inactive); GI50 (UACC-62): 70 µM (inactive); GI50 (UO-31): > 100 µM (inactive)
